The values below are quoted from earlier work in patent US20260014182A1, “METHOD OF TREATING CANCER” (M.T.3, Inc., priority 2019, published 2026).

This series has as its system angiogenesis. The settings on record: in-vitro test, used with radiation.
Consider `CCCCCCCCCCCCCCCCCCCCCC(=O)OCCCO[C@H]1O[C@H](CS(=O)(=O)[O-])[C@@H](O)[C@H](O)[C@H]1O.[Na+]` [αSQAP C22:0], for which the angiogenesis result was “inhibited”.

Take `CCCCCCCCCCCCCCCCCC(=O)OCCCO[C@@H]1O[C@H](CS(=O)(=O)[O-])[C@@H](O)[C@H](O)[C@H]1O.[Na+]` [βSQAP C18:0]: the angiogenesis result is given as “inhibited”. Consider `CCCCCCCCCC(=O)OCCCO[C@H]1O[C@H](CS(=O)(=O)[O-])[C@@H](O)[C@H](O)[C@H]1O.[Na+]` [αSQAP C10:0], for which the angiogenesis entry was “inhibited”. Regarding `CCCCCCCCCCCCCC(=O)OCCCO[C@H]1O[C@H](CS(=O)(=O)[O-])[C@@H](O)[C@H](O)[C@H]1O.[Na+]` [αSQAP C14:0], the angiogenesis result is “inhibited”.
